Measurements published in patent US11760773B2, “Small molecule drug conjugates of gemcitabine monophosphate” (MaveriX Oncology, Inc., priority 2018, dated 2023).

How the values were obtained:
[1] = Int 1-4 and gemcitabine comparative PK in male cynomolgus monkey (study g); assay type: in vivo; conditions: for AUC(0-t) / C0 / clearance / half-life / AUC(0-inf) / MRT inf / MRT last / Vd: plasma, male cynomolgus monkey; for AUC(0-inf): read-out: AUC0-inf; for MRT inf: read-out: MRT0-inf; for MRT last: read-out: MRT0-last; for Vd: read-out: Vdss
Protocol: Objectives: to compare the plasma pharmacokinetics and stability of Int 1-4 versus gemcitabine in plasma following single intravenous infusion administration of Int 1-4 at 5 mg/kg and 10 mg/kg with equimolar gemcitabine at 2.65 mg/kg and 5.29 mg/kg in male cynomolgous monkeys
PK measurements: compare PK parameters C0, CL, Vdss, Cmax, tmax, t1/2, AUC(0-t), AUC(0-inf), MRT(0-t), MRT(0-inf) for Int 1-4 with gemcitabine

[2] = Int 1-4 plasma PK in the male cynomolgus monkey (study f); assay type: in vivo; conditions: for C0: read-out: C0; for MRT inf: read-out: MRT0-inf; for MRT last: read-out: MRT0-last; for Vd: read-out: Vdss
Protocol: Objectives: to compare the plasma pharmacokinetics and stability of Int 1-4 in plasma following single intravenous infusion administration of Int 1-4 at 5 mg/kg and 10 mg/kg in the male cynomolgus monkey
PK measurements: compare PK parameters C0, CL, Vdss, Cmax, tmax, t, AUC(0-t), AUC(0-inf), MRT(0-t), MRT(0-inf) for Int 1-4

[3] = Int 1-4 dog plasma PK (study j); assay type: in vivo; conditions: male beagle dog; for AUC(0-inf): read-out: AUC0-inf; for MRT inf: read-out: MRT0-inf; for MRT last: read-out: MRT0-last; for Vd: read-out: Vdss
Protocol: Objectives: to compare the plasma pharmacokinetics and stability of Int 1-4 in plasma following single intravenous infusion administration of t 1-4 at 10 mg/kg and 20 mg/kg in the male Beagle dog.

[4] = Comparative dog plasma PK of Int 1-4 versus gemcitabine (study k); assay type: in vivo; conditions: male beagle dog; for AUC(0-inf): read-out: AUC0-inf; for MRT inf: read-out: MRT0-inf; for MRT last: read-out: MRT0-last; for Vd: read-out: Vdss
Protocol: Objectives: to compare the plasma pharmacokinetics and stability of Int-4 in plasma following single intravenous infusion administration of Int 1-4 at 5 mg/kg and 10 mg/kg versus gemcitabine at 5 mg/kg in the male Beagle dog

[5] = Comparative plasma PK of Int 1-4 versus gemcitabine in mouse (study a); assay type: in vivo; conditions: CD-1 mice
[6] = Comparative PK of Int 1-4 versus gemcitabine in rat plasma (study i); assay type: in vivo, Sprague-Dawley rats; conditions: Sprague-Dawley rat
Description: PK measurements: compare PK parameters C0, CL, Vdss, Cmax, tmax, t1/2, AUC(0-t), AUC(0-inf), MRT(0-t), MRT(0-inf) for Int 1-4 and gemcitabine.

[7] = after iv Int 1-4 5 mg/kg (study g)
[8] = after iv Int 1-4 10 mg/kg (study g)
[9] = after iv Int 1-4 5 mg/kg (study f)
[10] = after iv Int 1-4 10 mg/kg (study f)
[11] = after iv Int 1-4 10 mg/kg (study j)
[12] = after iv Int 1-4 20 mg/kg (study j)
[13] = after iv Int 1-4 5 mg/kg (study k)
[14] = after iv Int 1-4 10 mg/kg (study k)
[15] = mouse, plasma, after iv Int 1-4 9.4 mg/kg
[16] = plasma, after iv Int 1-4 10.0 mg/kg

## COc1cc(OC)c2oc(COC(=O)Nc3ccn([C@@H]4O[C@H](CO)[C@@H](O)C4(F)F)c(=O)n3)cc2c1 [Int 1-4, (5,7-di(methoxy)benzofuran-2-yl)methyl (1-((2R,4R,5R)-3,3-difluoro-4-hydroxy-5-(hydroxymethyl)tetrahydrofuran-2-yl)-2-oxo-1,2-dihydropyrimidin-4-yl)carbamate]
[1]; male cynomolgus monkey plasma
  fold longer half-life than gemcitabine: ~50 fold
[1]; [7]
  AUC(0-t): 5950 ng·h/mL
  C0: 99.7 µg/mL
  clearance: 14.6 mL/min/kg
  half-life: 45 min
  AUC(0-inf): 5960 ng·h/mL
  MRT inf: 19.8 min
  MRT last: 19.2 min
  Vd: 0.287 L/kg
[1]; [8]
  AUC(0-t): 11900 ng·h/mL
  C0: 146 µg/mL
  clearance: 15 mL/min/kg
  half-life: 59.4 min
  AUC(0-inf): 11900 ng·h/mL
  MRT inf: 23.4 min
  MRT last: 22.8 min
  Vd: 0.349 L/kg
[2]; [9]
  AUC(0-inf): 5470 ng·h/mL
  AUC(0-t): 5460 ng·h/mL
  clearance: 15.4 mL/min/kg
  half-life: 43.8 min
  C0: 81 µg/mL
  MRT inf: 19.8 min
  MRT last: 18.6 min
  Vd: 0.301 L/kg
[2]; [10]
  AUC(0-inf): 17400 ng·h/mL
  AUC(0-t): 17400 ng·h/mL
  clearance: 9.65 mL/min/kg
  half-life: 55.8 min
  C0: 166 µg/mL
  MRT inf: 26.4 min
  MRT last: 25.8 min
  Vd: 0.253 L/kg
[3]; [11]
  AUC(0-t): 4730 ng·h/mL
  C0: 60.5 µg/mL
  clearance: 35.2 mL/min/kg
  half-life: 32.4 min
  AUC(0-inf): 4740 ng·h/mL
  MRT inf: 14.4 min
  MRT last: 13.8 min
  Vd: 0.504 L/kg
[3]; [12]
  AUC(0-t): 7930 ng·h/mL
  C0: 90.9 µg/mL
  clearance: 43.3 mL/min/kg
  half-life: 31.2 min
  AUC(0-inf): 7940 ng·h/mL
  MRT inf: 13.8 min
  MRT last: 13.2 min
  Vd: 0.58 L/kg
[4]; [13]
  AUC(0-t): 2700 ng·h/mL
  C0: 40 µg/mL
  clearance: 30.8 mL/min/kg
  half-life: 15 min
  AUC(0-inf): 2730 ng·h/mL
  MRT inf: 7.2 min
  MRT last: 6.6 min
  Vd: 0.23 L/kg
[4]; after iv Int 1-4 5 mg/kg (study k), read-out: Cmax
  Cmax: 30.5 µg/mL
[4]; [14]
  AUC(0-t): 7930 ng·h/mL
  C0: 90.9 µg/mL
  clearance: 43.3 mL/min/kg
  half-life: 31.2 min
  AUC(0-inf): 7940 ng·h/mL
  MRT inf: 13.8 min
  MRT last: 13.2 min
  Vd: 0.58 L/kg
[5]; after iv Int 1-4
  plasma clearance and tissue uptake: quickly clears the plasma
[5]; [15]
  AUC(0-t): 4980 ng·h/mL
  C0: 78 µg/mL
  clearance: 27.1 mL/min/kg
  half-life: 63.6 min
[5]; mouse, plasma, after iv Int 1-4 9.4 mg/kg, read-out: AUC0-inf
  AUC(0-inf): 5000 ng·h/mL
[5]; mouse, plasma, after iv Int 1-4 9.4 mg/kg, read-out: MRT0-inf
  MRT inf: 20.8 min
[5]; mouse, plasma, after iv Int 1-4 9.4 mg/kg, read-out: MRT0-last
  MRT last: 19.7 min
[5]; mouse, plasma, after iv Int 1-4 9.4 mg/kg, read-out: Vdss
  Vd: 0.566 L/kg
[5]; plasma, after iv Int 1-4 9.4 mg/kg
  AUC0-inf/AUC0-last: 100%
[6]; iv Int 1-4
  stability in the rat (based on Cmax and AUC of free gemcitabine in plasma): unstable
[6]; Sprague-Dawley, rat, plasma, iv, 10 mg/kg, plasma, after iv Int 1-4 10.0 mg/kg
  half-life: 19.1 min
[6]; [16]
  AUC0-inf/AUC0-last: 101%
  AUC(0-inf): 2010 ng·h/mL
  AUC(0-t): 1990 ng·h/mL
  C0: 29.4 µg/mL
  clearance: 82.3 mL/min/kg
[6]; plasma, after iv Int 1-4 10.0 mg/kg, read-out: MRT0-inf
  MRT inf: 11.1 min
[6]; plasma, after iv Int 1-4 10.0 mg/kg, read-out: MRT0-last
  MRT last: 10.3 min
[6]; plasma, after iv Int 1-4 10.0 mg/kg, read-out: Vdss
  Vd: 0.905 L/kg
